Assay results: article PMC6231127, “The structure of the deubiquitinase USP15 reveals a misaligned catalytic triad and an open ubiquitin-binding channel” (The Journal of Biological Chemistry, 2018)

What was measured:
USP15-D1D2 = biological target: T1, USP15-D1D2 (Homo sapiens, UniProt Q9Y4E8, DEL469-785); test: X-ray crystal structure of complex, […] Å; assay type: binding; details: co-crystal, 0.1 M Na-Hepes pH 7.0, 14% MPD, 20 °C; S1' site near BL2 loop; ligand density in one of two copies
T1 construct: two copies in the asymmetric unit

FL-USP15 = biological target: T2, FL-USP15 (Homo sapiens, UniProt Q9Y4E8); test: linear diubiquitin gel shift cleavage assay (SDS-PAGE, ImageJ); assay type: biochemical
T2 sequence (Q9Y4E8 2-952 isoform Q9Y4E8-2): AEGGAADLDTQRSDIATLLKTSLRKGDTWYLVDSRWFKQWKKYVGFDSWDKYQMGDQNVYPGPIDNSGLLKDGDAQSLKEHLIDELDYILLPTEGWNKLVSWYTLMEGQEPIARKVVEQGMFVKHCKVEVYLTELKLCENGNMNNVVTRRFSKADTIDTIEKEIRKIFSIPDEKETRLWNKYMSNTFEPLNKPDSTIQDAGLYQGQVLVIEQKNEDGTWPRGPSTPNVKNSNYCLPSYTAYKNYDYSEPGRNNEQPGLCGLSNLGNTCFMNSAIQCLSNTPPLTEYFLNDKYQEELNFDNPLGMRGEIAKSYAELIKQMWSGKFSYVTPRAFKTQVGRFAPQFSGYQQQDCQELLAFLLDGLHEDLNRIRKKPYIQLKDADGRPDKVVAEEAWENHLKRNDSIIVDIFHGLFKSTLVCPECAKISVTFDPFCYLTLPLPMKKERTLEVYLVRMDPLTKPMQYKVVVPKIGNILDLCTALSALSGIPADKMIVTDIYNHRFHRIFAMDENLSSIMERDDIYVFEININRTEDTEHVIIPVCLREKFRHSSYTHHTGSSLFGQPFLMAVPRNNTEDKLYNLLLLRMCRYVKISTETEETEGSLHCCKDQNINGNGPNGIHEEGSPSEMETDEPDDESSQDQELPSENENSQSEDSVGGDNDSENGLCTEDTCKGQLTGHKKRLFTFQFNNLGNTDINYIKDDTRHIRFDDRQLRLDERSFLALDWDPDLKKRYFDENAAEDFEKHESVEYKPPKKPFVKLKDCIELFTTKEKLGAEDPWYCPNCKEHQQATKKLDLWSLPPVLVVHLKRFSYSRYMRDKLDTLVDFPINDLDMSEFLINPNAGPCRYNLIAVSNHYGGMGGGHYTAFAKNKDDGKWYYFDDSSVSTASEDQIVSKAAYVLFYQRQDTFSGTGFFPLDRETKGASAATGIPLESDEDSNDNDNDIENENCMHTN

In the case of `O=C1c2c(O)ccc(O)c2C(=O)c2c(NCCNCCO)ccc(NCCNCCO)c21` [mitoxantrone, 1,4-dihydroxy-5,8-bis[2-(2-hydroxyethylamino)ethylamino]anthracene-9,10-dione], the “X-ray crystal structure of complex, 2.09 Å” value (USP15-D1D2) is reported as “This USP15–mitoxantrone complex structure revealed predominantly hydrophobic interactions between mitoxantrone and USP15 residues” and the IC50 (FL-USP15) is reported as 33 ± 11 µM.
